Assays:
[1] = Administration of pentasaccharide sodium salt in minipigs: iontophoresis vs passive, I.V. and subcutaneous; plasma antifactor Xa (Example 3); assay type: in vivo, minipig (YUCATAN strain)
Method: Administration in minipigs of pentasaccharide sodium salt by iontophoresis at a set current density
Specialists consider minipigs of the YUCATAN strain to be an excellent animal model for studying the administration in man of medicaments by iontophoresis. This is because the skin structure of this animal is very similar to that of human skin.
The following tests were carried out on the aforementioned minipig with the aim of comparing the administration of the sodium salt of the pentasaccharide used in the previous examples by iontophoresis with administration by subcutaneous or intravenous injection.
For these tests, pairs of adhesive electrode sets were formed, each pair having a donor electrode assembly formed by a reversible negative electrode (active electrode) in contact with a first reservoir element holding the pentasaccharide to be administered, and a passive electrode assembly formed by a positive electrode (back electrode) in contact with a second reservoir element (receptacle element) holding an indifferent electrolyte.
Referring to the figure, each electrode assembly included a disc 1 of polyethylene foam having an axial cylindrical recess 2, the said disc having an adhesive face 3 and a non-adhesive face 4, each of the said faces having the shape of an annular area with a width of two centimetres. The end 5 of the recess in the disc, on the non-adhesive face side, was closed off by an electrode 6 in the form of a silver disc chlorided on one of its faces, the said disc having a cross-sectional area of 20 cm^2. The chlorided face 7 of the electrode disc is turned towards the interior of the recess. […] The said support disc, having a diameter intermediate between that of the electrode 6 and the disc 1, was bonded onto the non-adhesive face of the latter disc. The recess 2 in the disc 1 was filled with a conductive hydrogel 11 forming the reservoir element. The adhesive face 3 of the disc 1 was coated with a pressure-sensitive adhesive designed to be applied to the skin, the said face 3 and the face 12 adjacent to the reservoir element 11 being initially covered with a peelable non-stick polyester protective film which was removed before application to the skin.
In the donor electrode assembly, the negative electrode (active electrode) of chlorided silver contained a quantity of silver chloride equivalent to 1.8 mAh/cm^2, thus allowing the electrode to sustain the quantity of current flowing through the electrodes over the duration of the iontophoretic treatment, namely 1.2 mAh/cm^2. The reservoir element associated with the negative electrode was filled over a thickness of 2 mm, i.e. a quantity of 4 g over the 20 cm^2 of electrode, with a hydrogel based on xanthan and carob extract having 3% of dry extract and containing 2% by weight of sodium salt of the pentasaccharide of formula (I) given above. The donor electrode assembly therefore contained 80 mg of pentasaccharide in a ratio of 4 mg/cm^2 for each of the animals which were treated.
In the passive electrode assembly, the positive electrode (back electrode) made of chlorided silver contained a quantity of silver chloride equivalent to 0.1 mAh/cm^2, and the reservoir element associated with this electrode consisted of the same hydrogel as the one present in the donor electrode assembly, but without pentasaccharide and instead holding 4% by weight of NaCl.
An electrical signal generator, connectable to the electrodes of each electrode assembly pair, made it possible to deliver between the said electrodes a pulsed electrical signal of controlled intensity, having a frequency of 25 kHz and a duty ratio equal to 50%. […]

[2] = Transdermic passage of sodium pentasaccharide salt by iontophoresis at set intensity through nude rat skin (Example 2); assay type: in vitro ADME
Method: The procedure as described in Example 1 was carried out, but with the following modifications:
implementation of the iontophoresis by setting a constant intensity through each cell
use of a continuous current instead of a pulsed current
the absence of buffer in the donor and back-electrode compartments in test 2d, because these compartments are equipped with electrodes of the Ag/AgCl type, which avoid hydrolysis of water.
[…], over a period of 6 hours, using a generator making it possible to set a constant intensity irrespective of the voltages generated across the terminals of each cell.

[3] = test 3b: iontophoresis 0.20 mA/cm^2, 6 hours
[4] = test 3c: I.V. bolus 0.240 mg/kg
[5] = test 3d: subcutaneous 0.200 mg/kg
[6] = test 2a: titanium, 0 mA/cm^2 (passive)

Compound: O=C(O)C1OC(OC2C(COS(=O)(=O)O)OC(OC3C(C(=O)O)OC(OC4C(COS(=O)(=O)O)OC(O)C(NS(=O)(=O)O)C4O)C(OS(=O)(=O)O)C3O)C(NS(=O)(=O)O)C2OS(=O)(=O)O)C(O)C(O)C1OC1OC(COS(=O)(=O)O)C(O)C(O)C1NS(=O)(=O)O (centres unmarked) [pentasaccharide]
- Plasma level at 0 minutes ([1]; test 3a: passive, no current): 0 "Golden standard" units of ant
- Plasma level at 5 minutes ([1]; test 3a: passive, no current): 0 "Golden standard" units of ant
- Plasma level at 15 minutes ([1]; test 3a: passive, no current): 0 "Golden standard" units of ant
- Plasma level at 30 minutes ([1]; test 3a: passive, no current): 0 "Golden standard" units of ant
- Plasma level at 1 hour ([1]; test 3a: passive, no current): 0 "Golden standard" units of ant
- Plasma level at 2 hours ([1]; test 3a: passive, no current): 0 "Golden standard" units of ant
- Plasma level at 4 hours ([1]; test 3a: passive, no current): 0 "Golden standard" units of ant
- Plasma level at 6 hours ([1]; test 3a: passive, no current): 0 "Golden standard" units of ant
- Plasma level at 8 hours ([1]; test 3a: passive, no current): 0 "Golden standard" units of ant
- Plasma level at 12 hours ([1]; test 3a: passive, no current): 0 "Golden standard" units of ant
- Plasma level at 24 hours ([1]; test 3a: passive, no current): 0 "Golden standard" units of ant
- Plasma level at 30 hours ([1]; test 3a: passive, no current): 0 "Golden standard" units of ant
- plasma levels, expressed in terms of antifactor Xa, compared with intravenous or subcutaneous injections ([1]; test 3b: iontophoresis): higher plasma levels
- Plasma level at 0 minutes [1, 3]: 0 "Golden standard" units of ant
- Plasma level at 15 minutes [1, 3]: 0.06 ± 0.04 "Golden standard" units of ant
- Plasma level at 30 minutes [1, 3]: 0.15 ± 0.12 "Golden standard" units of ant
- Plasma level at 1 hour [1, 3]: 0.31 ± 0.15 "Golden standard" units of ant
- Plasma level at 2 hours [1, 3]: 0.45 ± 0.2 "Golden standard" units of ant
- Plasma level at 4 hours [1, 3]: 0.64 ± 0.18 "Golden standard" units of ant
- Plasma level at 6 hours [1, 3]: 0.74 ± 0.16 "Golden standard" units of ant
- Plasma level at 8 hours [1, 3]: 0.52 ± 0.13 "Golden standard" units of ant
- Plasma level at 12 hours [1, 3]: 0.4 ± 0.08 "Golden standard" units of ant
- Plasma level at 24 hours [1, 3]: 0.11 ± 0.03 "Golden standard" units of ant
- Plasma level at 30 hours [1, 3]: 0 "Golden standard" units of ant
- bioavailability (active principle administered, normalized to quantity present in the electrodes) ([1]; test 3b, 80 mg engaged): about 9%
- quantity of pentasaccharide administered per mAh ([1]; test 3b, for 1 mAh/cm^2): 292 μg/cm^2
- quantity of pentasaccharide administered per cm^2 ([1]; test 3b, for 1.2 mAh/cm^2): 350 μg/cm^2
- quantity of pentasaccharide actually administered by iontophoresis ([1]; test 3b, for the 20 cm^2, from areas under the curves): 7 ± 1.3 mg
- Plasma level at 0 minutes [1, 4]: 0 "Golden standard" units of ant
- Plasma level at 5 minutes [1, 4]: 1.04 ± 0.12 "Golden standard" units of ant
- Plasma level at 15 minutes [1, 4]: 0.91 ± 0.13 "Golden standard" units of ant
- Plasma level at 30 minutes [1, 4]: 0.65 ± 0.11 "Golden standard" units of ant
- Plasma level at 1 hour [1, 4]: 0.53 ± 0.10 "Golden standard" units of ant
- Plasma level at 2 hours [1, 4]: 0.30 ± 0.09 "Golden standard" units of ant
- Plasma level at 4 hours [1, 4]: 0.29 ± 0.08 "Golden standard" units of ant
- Plasma level at 6 hours [1, 4]: 0.22 ± 0.09 "Golden standard" units of ant
- Plasma level at 8 hours [1, 4]: 0.17 ± 0.06 "Golden standard" units of ant
- Plasma level at 12 hours [1, 4]: 0.07 ± 0.05 "Golden standard" units of ant
- Plasma level at 24 hours [1, 4]: 0 "Golden standard" units of ant
- Plasma level at 30 hours [1, 4]: 0 "Golden standard" units of ant
- Plasma level at 0 minutes [1, 5]: 0 "Golden standard" units of ant
- Plasma level at 15 minutes [1, 5]: 0.11 ± 0.04 "Golden standard" units of ant
- Plasma level at 1 hour [1, 5]: 0.17 ± 0.01 "Golden standard" units of ant
- Plasma level at 2 hours [1, 5]: 0.22 ± 0.04 "Golden standard" units of ant
- Plasma level at 4 hours [1, 5]: 0.26 ± 0.06 "Golden standard" units of ant
- Plasma level at 6 hours [1, 5]: 0.24 ± 0.01 "Golden standard" units of ant
- Plasma level at 8 hours [1, 5]: 0.15 ± 0.07 "Golden standard" units of ant
- Plasma level at 12 hours [1, 5]: 0.08 ± 0.03 "Golden standard" units of ant
- Plasma level at 24 hours [1, 5]: 0 "Golden standard" units of ant
- Plasma level at 30 hours [1, 5]: 0 "Golden standard" units of ant
- Fraction of active principle used (%) ([2]; at 6 hours, test 2a: titanium, 0 mA/cm^2 (passive)): ~ zero
- Fraction of active principle used (%) ([2]; at 6 hours, test 2b: graphite, 0.2 mA/cm^2): 0.09%
- Fraction of active principle used (%) ([2]; at 6 hours, test 2c: titanium, 0.2 mA/cm^2): 0.49%
- Fraction of active principle used (%) ([2]; at 6 hours, test 2d: Ag/AgCl, 0.2 mA/cm^2): 2.8%
- Fraction of active principle used (%) ([2]; at 24 hours, test 2a: titanium, 0 mA/cm^2 (passive)): 0.09%
- Fraction of active principle used (%) ([2]; at 24 hours, test 2b: graphite, 0.2 mA/cm^2): 0.9%
- Fraction of active principle used (%) ([2]; at 24 hours, test 2c: titanium, 0.2 mA/cm^2): 0.75%
- Fraction of active principle used (%) ([2]; at 24 hours, test 2d: Ag/AgCl, 0.2 mA/cm^2): 3.7%
- Antifactor activity Xa/ml at 6 hours [2, 6]: 0.12 units per ml
- Antifactor activity Xa/ml at 24 hours [2, 6]: 0.6 units per ml
- total diffused quantity ([2]; test 2a: titanium, passive): 4.64 μg per cm^2
- Antifactor activity Xa/ml at 6 hours ([2]; test 2b: graphite, 0.2 mA/cm^2): 6 units per ml
- total diffused quantity ([2]; test 2b: graphite, 0.2 mA/cm^2): 45 μg per cm^2
- Antifactor activity Xa/ml at 24 hours ([2]; test 2b: graphite, 0.2 mA/cm^2, 18 hours after current stopped): 5.8 units per ml
- Antifactor activity Xa/ml at 6 hours ([2]; test 2c: titanium, 0.2 mA/cm^2): 3.2 units per ml
- total diffused quantity ([2]; test 2c: titanium, 0.2 mA/cm^2): 38 μg per cm^2
- Antifactor activity Xa/ml at 24 hours ([2]; test 2c: titanium, 0.2 mA/cm^2, 18 hours after current stopped): 4.9 units per ml
- total diffused quantity per mAh ([2]; test 2d: Ag/AgCl electrodes): 154 μg/cm^2 per mAh
- total diffused quantity ([2]; test 2d: Ag/AgCl, 0.2 mA/cm^2): 185 μg per cm^2
- Antifactor activity Xa/ml at 6 hours ([2]; test 2d: Ag/AgCl, 0.2 mA/cm^2, no buffer): 18.1 units per ml
- Antifactor activity Xa/ml at 24 hours ([2]; test 2d: Ag/AgCl, 0.2 mA/cm^2, 18 hours after current stopped): 24 units per ml
